Test results taken from patent US9079915B2, “Thienyl- and furanyl-isoquinolinones and methods for using them” (priority 2008, dated 2015).

Legend:
Type in all cases: in vivo
[1] = system: Wistar rats, 90 min tMCAO; assay: Transient middle cerebral artery occlusion (tMCAO) model; details: tMCAO rat
Procedure: (§1) Adult male Wistar rats (Charles River, Wilmington, Mass.) 290-310 g were used in all studies. Animal procedures were approved by the Institutional Animal Care and Use Committee and conducted in accordance with the guidelines of the National Institutes of Health.
(§2) Rats were anesthetized with 3% isoflurane in a mixture of 70% nitrous oxide and 30% oxygen through a nose cone. Core body temperature was maintained at 37° C. throughout the surgery using a heating lamp. tMCAO was induced for 90 min using the intraluminal suture method (Longa et al., Reversible middle cerebral artery occlusion without craniectomy in rats. Stroke 20:84-91, 1989). Briefly, an 18 mm length of 4-0 monofilament nylon suture coated with poly-L-lysine (Belayev et al., 1996) with a flame-rounded tip was inserted into the external carotid artery and advanced into the internal carotid to occlude the origin of the MCA Ninety minutes later rats were re-anesthetized, the suture withdrawn and the incision closed. Drug (test compound) or vehicle, were administered into the tail vein as a 3 IV bolus doses 3 hours apart in a volume of 2 ml/kg starting at 4 hours post-induction of stroke at various time intervals after the induction of stroke. Animals were tested for motor deficits using a scoring system described by (Bederson et al., 1986). A Bederson score of 5 (maximum) at 90 minutes post-induction of tMCAO was a criterion for inclusion in the trial. Motor deficits and body weight were monitored at 24 and 48 hours post-tMCAO. Neurological deficits were assessed by blinded operators. Rats were sacrificed at 48 hours post-tMCAO. Sham-operated controls were subjected to identical surgical procedures but without advancement of the monofilament into the MCA branching point. The same model was also used, but in addition to occlusion of middle cerebral arteries, both carotid arteries were occluded (CCAO) for the same time 90 minutes. This was Severe Transient MCAO.
(§3) After sacrifice, brains were extracted and 2 mm coronal sections were cut starting at 4 mm from the frontal pole using a rat brain matrix (Stoeling, Wood Dale, Ill.). Sections were stained by immersion in a 2% solution of 2,3,5-triphenyl tetrazolium chloride at 37° C. for 10 minutes and then in 10% neutral formalin for preservation. Digitized images of sections were collected using the MCID image analysis system (Imaging Research, Inc. Ontario, Canada), and the area of infarct determined for each slice. Total infarct volume was calculated by multiplying a sum of areas by the distance between them in mm.
Values are expressed as means±SEM for the indicated number of animals or number of in vitro experiments. The statistical significance of differences between means was calculated by one-way ANOVA with post-hoc Fisher test or Dunnett's comparison to control or with Student's t-test analysis, as appropriate. Linear mix model was used to assess differences between treatment groups during 3-week neurological function recovery testing post-pMCAO. Statistical significance was assumed at p<0.05.
The first study was conducted using a transient middle cerebral artery occlusion (tMCAO) model. Rats were subjected to 90 minutes tMCAO and compound (2-dimethylaminomethyl-9-hydroxythieno[2,3-c]isoquinolin-5(4H)-one) was administered using 3 bolus injections at 4, 7 and 10 hours post-ischemia and an intraperitoneal (IP) route of administration. The three doses evaluated were 0.1, 1 and 10 mg/kg. Dosing was initiated at 4 hours post-MCAO because it is a clinically relevant therapeutic time window to treatment. Infarct volumes and neurological testing were carried out at 48 hours post-ischemia. This model produces an extensive unilateral lesion that involves the motor cortex and striatum. It is used to assess acute neuroprotection and neurological function in a reperfusion model of stroke. […]

[2] = system: Wistar rats, severe permanent MCAO; assay: Severe permanent MCAO model (intraluminal suture not removed); details: severe permanent MCAO rat, 3×1 mg/kg IP from 30 minutes post-ischemia, 24 hours
[3] = system: Wistar rats, severe tMCAO; assay: Severe tMCAO model (MCA and both carotid arteries temporarily occluded); details: severe tMCAO rat, 48 hours
Procedure: as §1
as §2, with “Sham-operated controls were subjected to identical surgical procedures but without advancement of the monofilament into the MCA branching point. The same model was also used, but in addition to occlusion of middle cerebral arteries, both carotid arteries were occluded (CCAO) for the same time 90 minutes. This was Severe Transient MCAO.” left out
as §3, with “Sections were stained by immersion in a 2% solution of 2,3,5-triphenyl tetrazolium chloride at 37° C. for 10 minutes and then in 10% neutral formalin for preservation.” left out
Values are expressed as means±SEM for the indicated number of animals or number of in vitro experiments. The statistical significance of differences between means was calculated by one-way ANOVA with post-hoc Fisher test or Dunnett's comparison to control or with Student's t-test analysis, as appropriate. […]
In a third assay, a severe tMCAO model was used (where both MCAO and carotid arteries were temporarily occluded) to obtain an injury. […] Doses of 1 or 10 mg/kg of 2-dimethylaminomethyl-9-hydroxythieno[2,3-c]isoquinolin-5(4H)-one were given at 4, 7 and 10 hours and animals were evaluated for infarct size, weight loss and neurological score at 48 hours post-MCAO.

Wistar rats, pMCAO = assay: Less severe permanent MCAO (pMCAO, distal MCA occlusion) model; details: pMCAO rat
Procedure: Adult male Wistar rats (Charles River, Wilmington, Mass.) 290-310 g were used in all studies. Animal procedures were approved by the Institutional Animal Care and Use Committee and conducted in accordance with the guidelines of the National Institutes of Health. Craniotomy was performed under isoflurane anesthesia. This was followed by electrocauterization of the distal portion of the MCA and a 90 minute ligation of both carotid arteries to limit collateral circulation during the initial stage of stroke, as described by Chen, et al. (Chen et al., 1986). Compound or vehicle, were administered as infusion starting at 4 hours post-induction of stroke and lasting 24 hours. Animals were maintained for long-term functional recovery assessment. Sensorimotor and reflex deficits were evaluated at 3-day intervals for 90 days according to (Bederson et al., 1986; De Ryck et al., 1989). Each trial included: postural test, two visual and two tactile forelimb placement tests and a hind limb placement test. Performance at each test was scored from 0 (no deficit) to 2 (severe deficit) for a maximum combined score of 12. Neurological scoring was performed in a blinded fashion. Values are expressed as means±SEM for the indicated number of animals or number of in vitro experiments. The statistical significance of differences between means was calculated by one-way ANOVA with post-hoc Fisher test or Dunnett's comparison to control or with Student's t-test analysis, as appropriate. Linear mix model was used to assess differences between treatment groups during 3-week neurological function recovery testing post-pMCAO. Statistical significance was assumed at p<0.05. A further efficacy study was conducted and employed a less severe permanent MCAO (pMCAO) model. This model, which utilized an occlusion of the distal portion of the middle cerebral artery, produced a much smaller injury contained within the sensorimotor cortex of the animal. The injury sustained in this model was less extensive but still involves the motor cortex and the rats can be assessed over the long-term (3 weeks to 3 months post-ischemia) for neurological function. In a first study with this model, rats were administered an IV bolus dose of 1, 3 or 10 mg/kg initiated at 4 hours post-ischemia and followed by 2 subsequent and equivalent doses at 7 and 10 hours. In a second study, rats were given a single IV bolus followed by a 24 hr IV infusion. Neurological function was tested every 2-3 days for 3 weeks post-MCAO.

[4] = 11.7 mg/kg IV bolus then 0.9 mg/hr infusion for 24 hours

## CN(C)Cc1cc2c([nH]c(=O)c3cccc(O)c32)s1 [2-dimethylaminomethyl-9-hydroxythieno[2,3-c]isoquinolin-5(4H)-one]
[1]; 1 mg/kg IP ×3, 48 hr post-MCAO
  neurological deficits: significantly reduced neurological deficits
[1]; 3.9 mg/kg IV bolus then 0.3 mg/hr infusion for 24 hours (lower dose)
  effect on neurological deficits, weight loss and infarct volume: No effect was seen
[1]; [4]
  ischemic-induced weight loss: significant reduction in ischemic-induced weight loss
  reduction in infarct volume (small but insignificant): 10%
[1]; 11.7 mg/kg IV bolus then 0.9 mg/hr infusion for 24 hours from 4 hours post-tMCAO, 48 hours
  neurological deficits: significant reduction in neurological deficits
[1]; 3×0.1 mg/kg IP at 4, 7 and 10 hours post-ischemia, 48 hours
  reduction of infarct volume vs vehicle: 20%
[1]; 3×1 mg/kg IP at 4, 7 and 10 hours post-ischemia, 48 hours
  reduction of infarct volume vs vehicle: 55%
[1]; 3×10 mg/kg IP at 4, 7 and 10 hours post-ischemia, 48 hours
  reduction of infarct volume vs vehicle: 66%
[2]
  infarct volume smaller than vehicle: 42%
[3]; 3 times 1 mg/kg IV bolus at 4, 7 and 10 hours
  infarct volume smaller than vehicle: 22%
[3]; 3 times 10 mg/kg IV bolus at 4, 7 and 10 hours
  infarct volume smaller than vehicle: 19%
[3]; 3 times 1 or 10 mg/kg IV bolus
  ischemia-induced weight loss: reduction of ischemia-induced weight loss
  neurological deficits: reduction of neurological deficits
Wistar rats, pMCAO; 3.5 mg/kg IV bolus plus 2.5 mg/hr IV infusion for 24 hours
  time for which neurological recovery was maintained following ischemia: at least 3 months
Wistar rats, pMCAO; 3.5 mg/kg IV bolus plus 2.5 mg/hr IV infusion for 24 hours, 39 days post-ischemia
  neurological deficits: significantly reduced neurological deficits
Wistar rats, pMCAO; multiple IV bolus 10 mg/kg, 21 days post-ischemia
  neurological function, 10 mg/kg dose: approached efficacy
Wistar rats, pMCAO; multiple IV bolus 1, 3 or 10 mg/kg at 4, 7 and 10 hours, 21 days post-ischemia
  neurological function: no significant improvement in neurological function
